Results taken from ChEMBL document CHEMBL1240458, “Probing the binding site of curcumin in Escherichia coli and Bacillus subtilis FtsZ--a structural insight to unveil antibacterial activity of curcumin” (Eur J Med Chem, 2010).
≈ marks a conversion by molar mass, not a printed value. Calls of active or inactive are those of the source. The calls are words filed in the database; no cut-off is given here.

Tests used:
[1] = molecular target: T1, Cell division protein FtsZ (Bacillus subtilis (strain 168), UniProt P17865); test: Inhibition of Bacillus subtilis FtsZ polymerization
T1 sequence (P17865 whole entry): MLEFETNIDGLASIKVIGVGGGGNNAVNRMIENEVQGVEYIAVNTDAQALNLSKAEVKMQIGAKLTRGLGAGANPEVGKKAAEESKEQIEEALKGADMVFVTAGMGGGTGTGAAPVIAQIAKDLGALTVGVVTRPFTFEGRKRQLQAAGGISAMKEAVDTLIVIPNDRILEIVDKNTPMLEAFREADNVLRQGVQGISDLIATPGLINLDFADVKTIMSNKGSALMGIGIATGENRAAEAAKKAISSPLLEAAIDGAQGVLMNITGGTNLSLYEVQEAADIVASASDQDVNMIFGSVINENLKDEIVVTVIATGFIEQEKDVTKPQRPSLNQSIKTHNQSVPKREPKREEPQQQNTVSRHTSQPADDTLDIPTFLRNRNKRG

Escherichia coli = test: Inhibition of Escherichia coli FtsZ polymerization
[2] = Inhibition of FtsZ polymerization
[3] = Inhibition of FtsZ GTPase

Row | IC50 [1] [µM] | inhibition (Escherichia coli) | SMILES | IC50 [2] [µg/mL] | IC50 [3] [µg/mL]
1 | 30 | Active | COc1cc(/C=C/C(=O)CC(=O)/C=C/c2ccc(O)c(OC)c2)ccc1O [CURCUMIN] | – | –
2 | – | – | COC(=O)CC1Cc2cc3cc(OC)c(-c4c(OC)cc5cc6c(c(O)c5c4O)C(=O)OC(CC(=O)OC)C6)c(O)c3c(O)c2C(=O)O1 (centres undefined) [VIRIDITOXIN] | 8.2 (≈ 12.4 µM) | 7 (≈ 10.6 µM)
